Assay results reported in US6737383B1, “Herbicidal oxadiazolidines” (priority 1999, dated 2004).

Assays:
[1] = system: pigweed; test: Test B pre/postemergence pigweed; format: in vivo, Amaranthus retroflexus
Method in brief: (§1)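 Test chemicals in a non-phytotoxic solvent mixture with surfactant were sprayed preemergence onto planted seeds and postemergence onto plants 2 to 18 cm tall (1- to 4-leaf stage). After twelve to sixteen days in a greenhouse, injury was visually rated against untreated controls from 0 (no effect) to 10 (complete control).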

[2] = system: corn; test: Test B pre/postemergence corn; format: in vivo, Zea mays
Method in brief: as §1

[3] = system: bedstraw; test: Test B pre/postemergence bedstraw; format: in vivo, Galium aparine
Method in brief: as §1

[4] = system: crabgrass; test: Test B pre/postemergence crabgrass; format: in vivo, Digitaria sanguinalis
Method in brief: as §1

[5] = system: rape; test: Test B pre/postemergence rape; format: in vivo, Brassica napus
Method in brief: as §1

[6] = system: purple nutsedge; test: Test B pre/postemergence purple nutsedge; format: in vivo, Cyperus rotundus
Method in brief: as §1

[7] = system: cocklebur; test: Test B pre/postemergence cocklebur; format: in vivo, Xanthium strumarium
Method in brief: as §1

[8] = system: bamyardgrass; test: Test B flood test barnyardgrass; format: in vivo, Echinochloa crus-galli
Method in brief: (§2)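 Each value is a visual injury score relative to controls, with 10 meaning complete control and 0 no effect. Evaluation took place twelve to sixteen days after the 2-leaf-stage plants were treated and kept in the greenhouse.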

[9] = system: surinam grass; test: Test B pre/postemergence surinam grass; format: in vivo, Brachiaria decumbens
Method in brief: as §1

[10] = system: sugar beet; test: Test B pre/postemergence sugar beet; format: in vivo, Beta vulgaris
Method in brief: as §1

[11] = system: blackgrass; test: Test B pre/postemergence blackgrass; format: in vivo, Alopecurus myosuroides
Method in brief: as §1

[12] = system: wild oat; test: Test B pre/postemergence wild oat; format: in vivo, Avena fatua
Method in brief: as §1

[13] = system: giant foxtail; test: Test B pre/postemergence giant foxtail; format: in vivo, Setaria faberii
Method in brief: as §1

[14] = system: rice; test: Test B flood test rice; format: in vivo, Oryza sativa
Method in brief: as §2

[15] = system: wheat; test: Test B pre/postemergence wheat; format: in vivo, Triticum aestivum
Method in brief: as §1

[16] = system: morningglory; test: Test B pre/postemergence morningglory; format: in vivo, Ipomoea hederacea
Method in brief: as §1

[17] = Postemergence, Rate 62 g/ha, scale 0 to 10, 0 is no effect, 10 is complete control
[18] = Postemergence, Rate 250 g/ha, scale 0 to 10, 0 no effect, 10 complete control
[19] = Preemergence, Rate 62 g/ha, scale 0 to 10 (0 no effect, 10 complete control)
[20] = Preemergence, Rate 125 g/ha, scale 0 to 10 (0 no effect, 10 complete control)
[21] = Preemergence, Rate 250 g/ha, scale of 0 to 10 where 0 is no effect and 10 is complete control
[22] = Preemergence, Rate 500 g/ha, scale 0 (no effect) to 10 (complete control)
[23] = Rate 125 g/ha, Postemergence, scale 0 to 10, 0 no effect, 10 complete control
[24] = Rate 500 g/ha, Postemergence, scale 0 to 10, 0 no effect, 10 complete control
[25] = Rate 125 g/ha, Postemergence section (flood test species), scale 0 to 10, 0 no effect, 10 complete control
[26] = Rate 500 g/ha, listed under Postemergence (flood test species), scale 0 to 10, 0 no effect, 10 complete control
[27] = flood test, listed under Postemergence, Rate 250 g/ha, scale 0 to 10, 0 no effect, 10 complete control

Cc1cccc(C(C)C)c1-n1c(=O)on(C(=O)N(c2ccccc2)C(C)C)c1=O [Compound 66]
0: Redroot pigweed plant response rating [1, 17] | Redroot pigweed plant response rating [1, 18] | Redroot pigweed plant response rating [1, 19] | Plant response rating, Redroot pigweed [1, 20] | Plant response rating, Redroot pigweed [1, 21] | Redroot pigweed plant response rating [1, 22] | Redroot pigweed plant response rating [1, 23] | Corn plant response rating [2, 17] | Corn plant response rating [2, 18] | Corn plant response rating [2, 19] | Plant response rating, Corn [2, 20] | Plant response rating, Corn [2, 21] | Corn plant response rating [2, 22] | Corn plant response rating [2, 23] | Bedstraw plant response rating [3, 17] | Bedstraw plant response rating [3, 18] | Bedstraw plant response rating [3, 19] | Plant response rating, Bedstraw [3, 20] | Plant response rating, Bedstraw [3, 21] | Bedstraw plant response rating [3, 22] | Bedstraw plant response rating [3, 23] | Crabgrass plant response rating [4, 17] | Crabgrass plant response rating [4, 18] | Crabgrass plant response rating [4, 19] | Crabgrass plant response rating [4, 23] | Crabgrass plant response rating [4, 24] | Rape plant response rating [5, 17] | Rape plant response rating [5, 18] | Rape plant response rating [5, 19] | Plant response rating, Rape [5, 20] | Plant response rating, Rape [5, 21] | Rape plant response rating [5, 22] | Rape plant response rating [5, 23] | Rape plant response rating [5, 24] | Nutsedge plant response rating [6, 17] | Nutsedge plant response rating [6, 18] | Nutsedge plant response rating [6, 19] | Plant response rating, Nutsedge [6, 20] | Nutsedge plant response rating [6, 23] | Nutsedge plant response rating [6, 24] | Cocklebur plant response rating [7, 17] | Cocklebur plant response rating [7, 18] | Cocklebur plant response rating [7, 19] | Plant response rating, Cocklebur [7, 20] | Plant response rating, Cocklebur [7, 21] | Cocklebur plant response rating [7, 22] | Cocklebur plant response rating [7, 23] | Cocklebur plant response rating [7, 24] | Barnyardgrass plant response rating [8, 17] | Barnyardgrass plant response rating [8, 25] | Barnyardgrass plant response rating [8, 27] | B. signalgrass plant response rating [9, 17] | B. signalgrass plant response rating [9, 18] | B. signalgrass plant response rating [9, 19] | Plant response rating, B. signalgrass [9, 20] | Plant response rating, B. signalgrass [9, 21] | B. signalgrass plant response rating [9, 22] | B. signalgrass plant response rating [9, 23] | B. signalgrass plant response rating ([9]; Rate 500 g/ha, Postemergence, scale of 0 to 10 where 0 is no effect and 10 is complete control) | Sugarbeets plant response rating [10, 17] | Sugarbeets plant response rating [10, 18] | Sugarbeets plant response rating [10, 19] | Plant response rating, Sugarbeets [10, 20] | Plant response rating, Sugarbeets [10, 21] | Sugarbeets plant response rating [10, 22] | Sugarbeets plant response rating [10, 23] | Sugarbeets plant response rating [10, 24] | Blackgrass plant response rating [11, 17] | Blackgrass plant response rating [11, 19] | Plant response rating, Blackgrass [11, 20] | Plant response rating, Blackgrass [11, 21] | Blackgrass plant response rating [11, 22] | Blackgrass plant response rating [11, 23] | Wild oats plant response rating [12, 17] | Wild oats plant response rating [12, 18] | Wild oats plant response rating [12, 19] | Plant response rating, Wild oats [12, 20] | Plant response rating, Wild oats [12, 21] | Wild oats plant response rating [12, 23] | Wild oats plant response rating [12, 24] | Giant foxtail plant response rating [13, 17] | Giant foxtail plant response rating [13, 18] | Giant foxtail plant response rating [13, 23] | Giant foxtail plant response rating [13, 24] | Rice plant response rating [14, 17] | Rice plant response rating [14, 25] | Rice plant response rating [14, 26] | Rice plant response rating [14, 27] | Wheat plant response rating [15, 17] | Wheat plant response rating [15, 18] | Wheat plant response rating [15, 19] | Plant response rating, Wheat [15, 20] | Plant response rating, Wheat [15, 21] | Wheat plant response rating [15, 22] | Wheat plant response rating [15, 23] | Wheat plant response rating [15, 24] | Morningglory plant response rating [16, 17] | Morningglory plant response rating [16, 19] | Plant response rating, Morningglory [16, 20] | Plant response rating, Morningglory [16, 21] | Morningglory plant response rating [16, 22]
1: Morningglory plant response rating [16, 18] | Morningglory plant response rating [16, 23]
6: Nutsedge plant response rating [6, 22] | Plant response rating, Giant foxtail [13, 21]
8: Crabgrass plant response rating [4, 22]
4: Redroot pigweed plant response rating [1, 24] | Plant response rating, Crabgrass [4, 21] | Giant foxtail plant response rating [13, 19] | Plant response rating, Giant foxtail [13, 20]
9: Giant foxtail plant response rating [13, 22]
3: Barnyardgrass plant response rating [8, 26] | Blackgrass plant response rating [11, 24]
2: Corn plant response rating [2, 24] | Bedstraw plant response rating [3, 24] | Plant response rating, Crabgrass [4, 20] | Blackgrass plant response rating [11, 18] | Wild oats plant response rating [12, 22] | Morningglory plant response rating [16, 24]
